From patent US7973219B2, “Method for producing transgenic plants resistant to weed control compounds which disrupt the porphyrin pathways of plants” (Sumitomo Chemical Company, Limited, priority 1998, dated 2011)
Where two headings read alike, the source gives them in different places.

Key:
[1] = test system: E. coli BT3/pACYCSP+pHASYS8 strain; test: Growth of E. coli BT3/pACYCSP+pHASYS8 with herbicidal compound; format: cell-based, Escherichia coli; conditions: 1 ppm, 18 hours culture, Table 16
[2] = test system: control recombinant tobacco; test: Leaf piece chlorophyll test, control recombinant tobacco; format: in vivo; conditions: control recombinant tobacco; for activity at 0.3 ppm: Nicotiana tabacum, read-out: Resistant level to test compound
Method: Then, according to the method described in Manual for Gene Manipulation of Plant (by Hirofumi UCHIMIYA, Kodan-sha Scientific, 1992), the gene was introduced into tobacco. Agrobacterium strain bearing plasmid pBIBCH was cultured at 28° C. overnight in LB medium and then leaf pieces of tobacco cultured sterilely were dipped in the liquid culture medium. The leaf pieces were cultured at room temperature for 2 days in Murashige-Skoog medium (MS-medium, described in Murasige T. and Skoog F., Physiol. Plant. (1962) 15, p 473) containing 0.8% agar, 0.1 mg/liter naphthalene acetic acid and 1.0 mg/liter benzyl aminopurine. Then, the leaf pieces were washed with sterilized water and cultured for 7 days on MS medium containing 0.8% agar, 0.1 mg/liter naphthalene acetic acid, 1.0 mg/liter benzyl aminopurine and 500 μg/ml cefotaxime. The leaf pieces were transplanted onto MS medium containing 0.8% agar, 0.1 mg/liter naphthalene acetic acid, 1.0 mg/liter benzyl aminopurine, 500 μg/ml cefotaxime and 100 μg/ml kanamycin (hereinafter referred to as selective MS medium) and cultured on the medium continuously for 4months with transplanting the tobacco leaf pieces onto fresh selective MS medium every 1 month. During culture, stem-leaf differentiated shoots were appeared from the tobacco leaf pieces, these shoots were transplanted to MS medium containing 0.8% agar, 300 μg/ml cefotaxime and 50 μg/ml kanamycin to induce roots to obtain regenerated plants. The resultant regenerated plant was transplanted and cultured on MS medium 0.8% agar and 50 μg/ml kanamycin to obtain tobacco plant into which bchH gene was introduced. Similarly, tobacco leaf pieces were infected with Agrobacterium strain bearing pNO to obtain regenerated plant from the tobacco leaf pieces and tobacco plant (hereinafter referred to as control recombinant tobacco).
The tobacco leaves into which bchH gene was introduced and control recombinant tobacco leaves obtained in Example 5 were collected and each leaf was divided into the right and left equivalent pieces along the main vein, respectively. To one piece was applied an aqueous solution containing 0.3 ppm PPO inhibitory-type herbicidal compound of Structure 8, while, to the other piece was not applied the compound. These leaf pieces were placed on MS medium containing 0.8% agar and allowed to stand at room temperature for 7 days in light place. Then, each leaf piece was ground with pestle and mortar in 5 ml of 80% aqueous acetone solution to extract chlorophyll. The extract liquid was diluted with 80% aqueous acetone solution and the absorbance was measured at 750 nm, 663 nm and 645 nm to calculate total chlorophyll content according to the method described by Macknney G., J. Biol. Chem. (1941) 140, p 315. The results obtained from 4 clones of tobacco into which bchH gene was introduced (BCH1 to 4) and control recombinant tobacco is shown in Table 4. In the table, the resistant level to the herbicidal compound was represented by percentages of the total chlorophyll content of leaf pieces treated with herbicidal compound to that of untreated leaf pieces.
The tobacco clone into which bchH gene was introduced and control recombinant tobacco were also treated in the same manner with the solution containing PPO inhibitory-type herbicidal compound represented by the above Structure 3, 7, 10, 11, 13, 17, 23, 24, 25, 27, 28, 30 or 35, and the resistant level to each herbicidal compound was measured. In the table, the resistant levels to the herbicidal compound were represented by percentages of the total chlorophyll content of leaf pieces treated with the herbicidal compound to that of untreated leaf pieces.
The level of resistance to PPO inhibitory type herbicidal compound represented by Structure 8 was confirmed quantitatively by testing tobacco into which the gene encoding the variant soybean PPO prepared in Example 13 was introduced according to the same manner as in Example 6. […]

With `C#CCOc1cc(N2C(=O)C3=C(CCCC3)C2=O)c(F)cc1Cl` [Structure 8] the Relative absorbance ([1]; in the dark) was 1.0, the Relative absorbance ([1]; in the light) was 0.57 and the activity at 0.3 ppm ([2]; 168 h, 0.3 ppm, 7 days in light, chlorophyll of treated vs untreated leaf pieces, Table 4) was 7.63%. For the same compound, the activity at 0.3 ppm ([2]; same manner as Example 6 (0.3 ppm), treated vs untreated leaf pieces, Table 8) was 10%, the activity at 0.3 ppm ([2]; same manner as Example 6 (0.3 ppm), treated vs untreated leaf pieces, Table 10) was 18.4% and the activity at 0.3 ppm ([2]; same manner as Example 6 (0.3 ppm), treated vs untreated leaf pieces, Table 12) was 8.29%. The “Total chlorophyll content treated-leaf” value ([2]; 0.3 ppm, leaf pieces 7 days in light place, Table 4) was 0.19 mg/g-fresh weight, the resistant level ([2]; 2.0 ppm, 7 days in a light place, chlorophyll of treated vs untreated leaf pieces, Example 37) was 2.88% and the “Total chlorophyll content treated-leaf” value ([2]; same manner as Example 6 (0.3 ppm, 7 days in light), Table 8) was 0.35 mg/g-fresh weight. For the same compound, the “Total chlorophyll content treated-leaf” value ([2]; same manner as Example 6 (0.3 ppm, 7 days in light), Table 10) was 0.42 mg/g-fresh weight and the “Total chlorophyll content treated-leaf” value ([2]; same manner as Example 6 (0.3 ppm, 7 days in light), Table 12) was 0.160 mg/g-fresh weight.
